Test results taken from US20200390764A1, “PHARMACEUTICAL FORMULATIONS, PROCESSES FOR PREPARATION, AND METHODS OF USE” (Sunesis Pharmaceuticals, Inc., priority 2017, published 2020).
Values after ≈ are worked out from the molar mass of the structure shown.

How the values were obtained:
[1] = Oral pharmacokinetics in mice; format: in vivo; conditions: for Tmax / bioavailability: mouse, in vivo; for bioavailability: read-out: oral bioavailability % F
Aqueous solubility = format: physicochemical
From the text: The present invention provides a process for the preparation of a pharmaceutical composition comprising active compounds as described herein, with improved absorption. […] According to the process of the present invention, it is possible to provide, from an active compound, a formulation in which the dissolution rate and oral bioavailability of the drug are high. Furthermore, the solid dispersion extrudates of the present invention have good stability at room temperature.
To overcome the inherent hurdles posed by this class of drugs, three alternative formulation approaches were screened: lipid-based formulation, nano-suspension, and solid dispersion via hot melt extrusion (HME).

MV4-11 xenografts = experiment: In vivo pathway modulation in MV4-11 xenografts; conditions: 4 hours and 24 hours after a single oral dose, MV4-11 xenografts in mice
Method: Pathway modulation was assessed in vivo using MV4-11 xenografts in mice. […] Efficacy was assessed by 21-day dosing in MV4-11 xenografts.

[2] = system: phosphorylation of PDK1, RSK2, and AKT; experiment: Pathway modulation in cells: inhibition of phosphorylation; format: cell-based
From the text: (§1) The compounds bind deep in the adaptive (allosteric) pocket, causing a distortion in the N-terminal domain thereby perturbing the PIF-pocket and thus negatively modulating PI-independent substrate binding. […] Anti-proliferative activity correlated with pathway modulation assessed by inhibition of phosphorylation of PDK1, RSK2, and AKT.

[3] = system: cell lines derived from hematologic cancers; experiment: Apoptosis induction in cancer cell lines; format: cell-based; conditions: after 24 hours
From the text: as §1

PDK1 = target: T1, PDK1 (Homo sapiens, UniProt O15530); experiment: PDK1 biochemical potency (binding of the inactive conformation); conditions: compared to the PDK1 inhibitor GSK2334470
T1 sequence (O15530 1-556): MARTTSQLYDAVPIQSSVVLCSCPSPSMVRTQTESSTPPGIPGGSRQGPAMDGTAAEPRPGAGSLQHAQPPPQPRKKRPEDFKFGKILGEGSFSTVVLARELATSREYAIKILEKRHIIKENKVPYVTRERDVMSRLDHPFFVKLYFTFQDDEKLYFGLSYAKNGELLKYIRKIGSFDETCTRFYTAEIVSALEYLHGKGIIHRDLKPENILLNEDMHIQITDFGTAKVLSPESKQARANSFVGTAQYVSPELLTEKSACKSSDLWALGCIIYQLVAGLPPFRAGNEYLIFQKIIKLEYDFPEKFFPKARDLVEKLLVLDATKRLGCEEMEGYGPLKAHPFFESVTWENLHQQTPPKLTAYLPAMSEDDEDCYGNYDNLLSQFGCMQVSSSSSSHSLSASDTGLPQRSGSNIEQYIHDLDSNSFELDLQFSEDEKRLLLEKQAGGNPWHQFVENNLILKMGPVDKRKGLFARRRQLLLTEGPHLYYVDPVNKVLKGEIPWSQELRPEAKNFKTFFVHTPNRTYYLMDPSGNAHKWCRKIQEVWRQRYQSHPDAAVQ
From the text: as §1

[4] = system: cell lines derived from hematologic cancers; experiment: 72-hour viability assays; format: cell-based
From the text: as §1

[5] = system: cell lines derived from hematologic cancers; experiment: Anti-proliferative activity in a panel of hematologic cancer cell lines; format: cell-based; conditions: panel of more than 20 cell lines: AML, multiple myeloma, DLBCL, Mantle cell lymphoma
From the text: as §1

half-life [1] | Tmax [1] [h] | bioavailability [1] [%] | solubility (Aqueous solubility; aqueous buffer, over the physiological pH range) [µg/mL] | solubility (Aqueous solubility; aqueous medium (not specified further)) [µg/mL] | biochemical potency compared to GSK2334470 (PDK1) | EC50 [5] [nM] | SMILES | pathway modulation in vivo (MV4-11 xenografts) | inhibition of PDK1 phosphorylation, fold more after 24 hours than 4 hours ([2]; 24 hours vs 4 hours) | fold more potent than GSK2334470 at inhibiting PDK1 and RSK2 phosphorylation ([2]; all cell lines tested) | apoptosis [3] | fold more potent than GSK2334470 in viability assays [4]
long half-life | 4 to 8 | > 40 | < 0.1 | 0.1 (≈ 0.19 µM) |  |  | C[C@H](NC(=O)c1nc(C#N)cnc1NCc1ccc(-c2cnc3[nH]nc(N)c3n2)cc1)c1ccc(F)c(F)c1 (stereo in doubt) [Compound 1, 3-[4-(3-Amino-1H-pyrazolo[3,4-b]pyrazin-5-yl)-benzylamino]-6-cyano-pyrazine-2-carboxylic acid [1-(3,4-difluoro-phenyl)-ethyl]-amide] | Potent pathway modulation |  |  |  | 
long half-life | 4 to 8 | > 40 |  |  | comparable biochemical potency | 3 to 900 | CNc1n[nH]c2ncc(-c3ccc(CNc4ncc(C#N)nc4C(=O)N[C@@H](C)c4ccc(F)c(F)c4)cc3)cc12 [Compound 2, 6-Cyano-3-[4-(3-methylamino-1H-pyrazolo[3,4-b]pyridin-5-yl)-benzylamino]-pyrazine-2-carboxylic acid [1-(3,4-difluoro-phenyl)-ethyl]-amide] | Potent pathway modulation | 2-5 fold | 10- to 30 fold | substantial apoptosis | at least 10 fold
